Measurements taken from patent publication US20070213394A1 (priority 2004, published 2007).
Read-outs that look alike come from different tables or passages of the source.

Experiments:
[1] = target: T1, human kappa opioid receptor (Homo sapiens, UniProt P41145); experiment: biochemical; type: binding
T1 construct: expressed in transfected cells; host or cells: Chinese hamster ovary cells (CHO-hKOR), membranes

[2] = target: T1, human kappa opioid receptor; experiment: biochemical; settings: 1 h, read-out: Efficacy

T1 sequence (P41145 whole entry): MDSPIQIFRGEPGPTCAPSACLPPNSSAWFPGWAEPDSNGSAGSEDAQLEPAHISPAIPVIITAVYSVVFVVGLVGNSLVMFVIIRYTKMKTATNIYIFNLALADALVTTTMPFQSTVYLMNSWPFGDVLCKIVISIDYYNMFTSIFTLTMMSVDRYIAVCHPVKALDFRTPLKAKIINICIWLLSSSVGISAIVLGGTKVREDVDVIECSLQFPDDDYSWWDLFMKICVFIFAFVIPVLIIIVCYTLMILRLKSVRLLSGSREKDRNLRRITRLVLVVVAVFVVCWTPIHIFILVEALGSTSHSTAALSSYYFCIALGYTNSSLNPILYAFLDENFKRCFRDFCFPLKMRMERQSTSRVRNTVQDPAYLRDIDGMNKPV

Compound	Emax [2]	Ki [1]	further results
CNC(=O)[C@@H]1C[C@H](OC(C)=O)C(=O)[C@H]2[C@@]1(C)CC[C@H]1C(=O)O[C@H](c3ccoc3)C[C@]21C [Compound 219, C(4)-N-methylamide salvinorin A]	–	–	Ki ([1]; read-out: Ki): > 1 µM
CCC(=O)N[C@@H]1C[C@@H](C(=O)OC)[C@]2(C)CC[C@H]3C(=O)O[C@H](c4ccoc4)C[C@]3(C)[C@H]2C1=O [Compound 213b, 2-epi-(propionamide)-salvinorin]	102%	–	–
COC(=O)[C@@H]1C[C@H](O)C(=O)C2[C@@]1(C)CC[C@H]1C(=O)O[C@H](c3ccoc3)C[C@]21C (some centres unmarked) [Compound 1, salvinorin B]	98%	–	–
CCN(C(C)=O)[C@H]1C[C@@H](C(=O)OC)[C@]2(C)CC[C@H]3C(=O)O[C@H](c4ccoc4)C[C@]3(C)[C@H]2C1=O [Compound 216a, 2-(N-ethylacetamide)-salvinorin]	104%	–	–
COC(=O)[C@@H]1C[C@H](OC(=O)CN(C)C)C(=O)C2[C@@]1(C)CC[C@H]1C(=O)O[C@H](c3ccoc3)C[C@]21C (some centres unmarked) [Compound 27]	–	> 10 µM	–
COC(=O)C1CC(OC)C(=O)C2C1(C)CCC1C(=O)OC(c3ccoc3)CC12C (stereo not drawn) [Compound 205b, 2-epi-(O-methyl)-salvinorin B]	–	> 10 µM	–
CCOC1CC(C(=O)OC)C2(C)CCC3C(=O)OC(c4ccoc4)CC3(C)C2C1=O (stereo not drawn) [Compound 206b, 2-epi-(O-ethyl)-salvinorin B]	–	> 10 µM	–
CCCOC(=O)C1CC(OC(C)=O)C(=O)C2C1(C)CCC1C(=O)OC(c3ccoc3)CC12C (centres unmarked) [Compound 54]	–	> 10 µM	–
CNC(=O)C1CC(OC(C)=O)C(=O)C2C1(C)CCC1C(=O)OC(c3ccoc3)CC12C (stereo not drawn) [C8-epi-compound 219, 8-epi-C(4)-N-methylamide salvinorin A]	–	–	Ki ([1]; read-out: Ki): 1.39 ± 0.218 µM
8-epi-O-demethyl-18-deoxysalvinorin A [C8-epi-compound 222]	–	–	Ki ([1]; read-out: Ki): 1 ± 0.269 µM
CCOC(=O)C1CC(OC(C)=O)C(=O)C2C1(C)CCC1C(=O)OC(c3ccoc3)CC12C (centres unmarked) [Compound 33]	–	> 10 µM	–
CC(=O)OC1CC(C(=O)N(C)C)C2(C)CCC3C(=O)OC(c4ccoc4)CC3(C)C2C1=O (centres unmarked) [Compound 221, C(4)-N,N-dimethylamide salvinorin A]	–	> 10 µM	–
CC(=O)OC1CC(CN(C)C)C2(C)CCC3C(=O)OC(c4ccoc4)CC3(C)C2C1=O (stereo not drawn) [C8-epi-compound 226, 8-epi-4-(N,N-dimethylamino)methyl salvinorin A]	–	–	Ki ([1]; read-out: Ki): > 10 µM
CCC(=O)N(CC)[C@@H]1C[C@@H](C(=O)OC)[C@]2(C)CC[C@H]3C(=O)O[C@H](c4ccoc4)C[C@]3(C)[C@H]2C1=O [Compound 217b, 2-epi-(N-ethylpropionamide)-salvinorin]	96%	–	–
COC(=O)[C@@H]1C[C@H](O)C(=O)C2[C@@]3(C)C[C@@H](c4ccoc4)OC(=O)[C@H]3CC[C@]21C (some centres unmarked) [Compound 5, Episalvinorin B]	102%	–	–
COC(=O)[C@@H]1C[C@@H](N(C)C(C)=O)C(=O)C2[C@@]1(C)CC[C@H]1C(=O)O[C@H](c3ccoc3)C[C@]21C (stereo partly drawn) [Compound 80, 2-epi-(N-methylacetamide)-salvinorin]	106%	–	–
CCC(=O)N(CC)[C@H]1C[C@@H](C(=O)OC)[C@]2(C)CC[C@H]3C(=O)O[C@H](c4ccoc4)C[C@]3(C)[C@H]2C1=O [Compound 217a, 2-(N-ethylpropionamide)-salvinorin]	100%	–	–
CCO[C@H]1C[C@@H](C(=O)OC)[C@]2(C)CC[C@H]3C(=O)O[C@H](c4ccoc4)C[C@]3(C)C2C1=O (some centres unmarked) [Compound 15, 2-ethoxy-salvinorin B]	103%	–	–
CCN(C(C)=O)[C@@H]1C[C@@H](C(=O)OC)[C@]2(C)CC[C@H]3C(=O)O[C@H](c4ccoc4)C[C@]3(C)[C@H]2C1=O [Compound 216b, 2-epi-(N-ethylacetamide)-salvinorin]	95%	–	–
CCC(=O)N[C@H]1C[C@@H](C(=O)OC)[C@]2(C)CC[C@H]3C(=O)O[C@H](c4ccoc4)C[C@]3(C)[C@H]2C1=O [Compound 213a, 2-(propionamide)-salvinorin]	109%	–	–
